IC50 data for twelve compounds are collected here from patent publication US20260200947A1, “FUSED CYCLIC COMPOUNDS AND USE THEREOF” (Jacobio Pharmaceuticals Co., Ltd., priority 2022, published 2026).

GppNp-KRAS G12D, sequence (P01116 1-169 isoform P01116-2 G12D): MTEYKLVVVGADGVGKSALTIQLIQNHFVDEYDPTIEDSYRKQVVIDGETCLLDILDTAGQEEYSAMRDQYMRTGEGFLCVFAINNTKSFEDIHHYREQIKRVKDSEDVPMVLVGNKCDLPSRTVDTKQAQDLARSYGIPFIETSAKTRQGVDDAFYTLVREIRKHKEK

The target of the first test is T1, GDP-KRAS G12D (Homo sapiens, UniProt P01116, G12D). In words: biochemical.
T1 sequence (P01116 1-169 isoform P01116-2 G12D): as above
Details: not given
By IC50 is commonly meant the concentration that inhibits the measured activity by half. For `C#Cc1c(F)ccc2cc(N)cc(-c3nc4c5c(nc(OC[C@@]67CCCN6C[C@H](F)C7)nc5c3F)N3CCC(F)CCC3N4C)c12` (stereo partly drawn) [Compound 77], the IC50 was found to be 7.63 nM.

Compound `C#Cc1c(F)ccc2cc(N)cc(-c3nc4c5c(nc(OC[C@@]67CCCN6C[C@H](F)C7)nc5c3F)N3CCCC=C(F)C3N4C)c12` (stereo partly drawn) [Compound 80] had an IC50 of 10.6 nM.

On to `C#Cc1c(F)ccc2cc(N)cc(-c3nc4c5c(nc(OC[C@@]67CCCN6C[C@H](F)C7)nc5c3F)N3CCCC(O)CC3N4C)c12` (stereo partly drawn) [Compound 87], for which the half-maximal inhibitory concentration (IC50) was found to be 33.3 nM.

Compound `C#Cc1c(F)ccc2cc(N)cc(-c3nc4c5c(nc(OC[C@@]67CCCN6C[C@H](F)C7)nc5c3F)N3C/C(=N\OC)COC[C@@H]3N4C)c12` [Compound 148] gave an IC50 of 287 nM.

In turn, `C#Cc1c(F)ccc2cc(N)cc(-c3nc4c5c(nc(OC[C@@]67CCCN6C[C@H](F)C7)nc5c3F)N3CC(C)COC[C@H]3CO4)c12` (stereo partly drawn) [Compound 16] gave an IC50 of 29.7 nM.

Take `C#Cc1c(F)ccc2cc(N)cc(-c3nc4c5c(nc(OC[C@@]67CCCN6C[C@H](F)C7)nc5c3F)N3CCCC3N4C)c12` (stereo partly drawn) [Compound 153]: half-maximal inhibition (IC50) was put at 83.4 nM.

The compound `C#Cc1c(F)ccc2cc(N)cc(-c3nc4c5c(nc(OC[C@@]67CCCN6C[C@H](F)C7)nc5c3F)N3CCC(F)(F)CCC3N4C)c12` (stereo partly drawn) [Compound 81] came in with an IC50 of 78.8 nM.

In the case of `C#Cc1c(F)ccc2cc(N)cc(-c3nc4c5c(nc(OC[C@@]67CCCN6C[C@H](F)C7)nc5c3F)N3CCCC/C(=C/F)C3N4C)c12` (stereo partly drawn) [Compound 86], half-maximal inhibition (IC50) was put at 10.3 nM.

The compound `C#Cc1c(F)ccc2cc(N)cc(-c3nc4c5c(nc(OCC6(CN7CCOCC7)CCC6)nc5c3F)N3CCCOCC3N4C)c12` (stereo not drawn) [Compound 140] came in with an IC50 of 13.8 nM.

The compound `C#Cc1c(F)ccc2cc(N)cc(-c3nc4c5c(nc(OC[C@@]67CCCN6C[C@H](F)C7)nc5c3F)N3CC(F)CC[C@H](F)[C@H]3N4C)c12` (stereo partly drawn) [Compound 134] came in with an IC50 of 1.75 nM.

The next test relates to SW620 cells (K-Ras G12V).
Assay: not given
Details: not given
For the compound `C#Cc1c(F)ccc2cc(N)cc(-c3nc4c5c(nc(OC[C@@]67CCCN6C[C@H](F)C7)nc5c3F)N3CC(F)COC[C@@H]3CO4)c12` (stereo partly drawn) [Compound 29], the midpoint of inhibition, the IC50, lay at 158 nM.

`C#Cc1c(F)ccc2cc(N)cc(-c3nc4c5c(nc(OC[C@@]67CCCN6C[C@H](F)C7)nc5c3F)N3CCCC/C(=C/F)C3N4C)c12` (stereo partly drawn) [Compound 86]: half-maximal inhibition (IC50) was put at 412 nM.

Another test concerns the target GppNp-KRAS G12D (Homo sapiens, UniProt P01116, G12D). Nature of the test: biochemical.
Details: not given
In turn, `C#Cc1c(F)ccc2cc(N)cc(-c3nc4c5c(nc(OC[C@@]67CCCN6C[C@H](F)C7)nc5c3F)N3CCC(F)CCC3N4C)c12` (stereo partly drawn) [Compound 77] showed an IC50 of 177 nM.

The compound `C#Cc1c(F)ccc2cc(N)cc(-c3nc4c5c(nc(OC[C@@]67CCCN6C[C@H](F)C7)nc5c3F)N3CCCC=C(F)C3N4C)c12` (stereo partly drawn) [Compound 80] returned an IC50 of 314 nM.

`C#Cc1c(F)ccc2cc(N)cc(-c3nc4c5c(nc(OC[C@@]67CCCN6C[C@H](F)C7)nc5c3F)N3CCCC(O)CC3N4C)c12` (stereo partly drawn) [Compound 87] gave an IC50 of 882 nM.

In the case of `C#Cc1c(F)ccc2cc(N)cc(-c3nc4c5c(nc(OC[C@@]67CCCN6C[C@H](F)C7)nc5c3F)N3C/C(=N\OC)COC[C@@H]3N4C)c12` [Compound 148], the 50% inhibitory concentration (IC50) is more than 1000 nM.

In turn, `C#Cc1c(F)ccc2cc(N)cc(-c3nc4c5c(nc(OC[C@@]67CCCN6C[C@H](F)C7)nc5c3F)N3CC(C)COC[C@H]3CO4)c12` (stereo partly drawn) [Compound 16] came in with an IC50 of 651 nM.

As to `C#Cc1c(F)ccc2cc(N)cc(-c3nc4c5c(nc(OC[C@@]67CCCN6C[C@H](F)C7)nc5c3F)N3CCCC3N4C)c12` (stereo partly drawn) [Compound 153], the IC50 is more than 1000 nM.

In the case of `C#Cc1c(F)ccc2cc(N)cc(-c3nc4c5c(nc(OC[C@@]67CCCN6C[C@H](F)C7)nc5c3F)N3CCC(F)(F)CCC3N4C)c12` (stereo partly drawn) [Compound 81], the IC50 was more than 1000 nM.

`C#Cc1c(F)ccc2cc(N)cc(-c3nc4c5c(nc(OC[C@@]67CCCN6C[C@H](F)C7)nc5c3F)N3CCCC/C(=C/F)C3N4C)c12` (stereo partly drawn) [Compound 86] showed an IC50 of more than 1000 nM.

As to `C#Cc1c(F)ccc2cc(N)cc(-c3nc4c5c(nc(OCC6(CN7CCOCC7)CCC6)nc5c3F)N3CCCOCC3N4C)c12` (stereo not drawn) [Compound 140], the IC50 is more than 1000 nM.

As to `C#Cc1c(F)ccc2cc(N)cc(-c3nc4c5c(nc(OC[C@@]67CCCN6C[C@H](F)C7)nc5c3F)N3CC(F)CC[C@H](F)[C@H]3N4C)c12` (stereo partly drawn) [Compound 134], the IC50 worked out at 21.6 nM.

For a further test, the target named is GppNp-KRAS G12V (Homo sapiens, UniProt P01116, G12V). Nature of the test: biochemical.
GppNp-KRAS G12V, sequence (P01116 1-169 isoform P01116-2 G12V): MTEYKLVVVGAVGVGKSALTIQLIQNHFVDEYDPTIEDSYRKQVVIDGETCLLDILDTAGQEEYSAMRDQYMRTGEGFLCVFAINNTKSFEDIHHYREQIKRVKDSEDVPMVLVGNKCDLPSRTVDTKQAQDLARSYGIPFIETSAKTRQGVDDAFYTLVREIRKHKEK
Details: not given
For the compound `C#Cc1c(F)ccc2cc(N)cc(-c3nc4c5c(nc(OC[C@@]67CCCN6C[C@H](F)C7)nc5c3F)N3CCCC=C(F)C3N4C)c12` (stereo partly drawn) [Compound 80], the IC50 was more than 1000 nM.

`C#Cc1c(F)ccc2cc(N)cc(-c3nc4c5c(nc(OC[C@@]67CCCN6C[C@H](F)C7)nc5c3F)N3CCCC(O)CC3N4C)c12` (stereo partly drawn) [Compound 87] yielded an IC50 of more than 1000 nM.

`C#Cc1c(F)ccc2cc(N)cc(-c3nc4c5c(nc(OC[C@@]67CCCN6C[C@H](F)C7)nc5c3F)N3C/C(=N\OC)COC[C@@H]3N4C)c12` [Compound 148] showed a concentration for half-maximal inhibition (IC50) of more than 1000 nM.

With `C#Cc1c(F)ccc2cc(N)cc(-c3nc4c5c(nc(OC[C@@]67CCCN6C[C@H](F)C7)nc5c3F)N3CC(C)COC[C@H]3CO4)c12` (stereo partly drawn) [Compound 16], the IC50 was more than 1000 nM.

`C#Cc1c(F)ccc2cc(N)cc(-c3nc4c5c(nc(OC[C@@]67CCCN6C[C@H](F)C7)nc5c3F)N3CCCC3N4C)c12` (stereo partly drawn) [Compound 153] came in with an IC50 of more than 1000 nM.

`C#Cc1c(F)ccc2cc(N)cc(-c3nc4c5c(nc(OC[C@@]67CCCN6C[C@H](F)C7)nc5c3F)N3CCC(F)(F)CCC3N4C)c12` (stereo partly drawn) [Compound 81] registered an IC50 of more than 1000 nM.

Compound `C#Cc1c(F)ccc2cc(N)cc(-c3nc4c5c(nc(OC[C@@]67CCCN6C[C@H](F)C7)nc5c3F)N3CCCC/C(=C/F)C3N4C)c12` (stereo partly drawn) [Compound 86] gave an IC50 of more than 1000 nM.

Turning to `C#Cc1c(F)ccc2cc(N)cc(-c3nc4c5c(nc(OCC6(CN7CCOCC7)CCC6)nc5c3F)N3CCCOCC3N4C)c12` (stereo not drawn) [Compound 140], the IC50 is more than 1000 nM.

`C#Cc1c(F)ccc2cc(N)cc(-c3nc4c5c(nc(OC[C@@]67CCCN6C[C@H](F)C7)nc5c3F)N3CC(F)CC[C@H](F)[C@H]3N4C)c12` (stereo partly drawn) [Compound 134]: inhibition was half-maximal at 50.4 nM (IC50).

The next test addresses T1, GDP-KRAS G12D. In words: SOS1 catalyzed nucleotide exchange assay, GDP-KRAS G12D. The settings on record: read-out: Biochemical assays, IC50, KRAS G12D GDP, GDP form K-Ras G12D, TR-FRET. Background: TR-FRET usually uses a lanthanide donor and a delayed reading to cut background.
In the case of `N#Cc1c(N)sc2c(F)ccc(-c3c(Cl)c4c5c(nc(OCC67CCCN6CC(F)C7)nc5c3F)N3CCCOCC3CO4)c12` (single isomer, unassigned) [Compound 66A], the 50% inhibitory concentration (IC50) came out at 169 nM.

For another test, the target named is T2, GDP-KRAS G12V (Homo sapiens, UniProt P01116, G12V). In words: SOS1 catalyzed nucleotide exchange assay, GDP-KRAS G12V. The settings on record: read-out: Biochemical assays, IC50, KRAS G12V GDP, GDP form K-Ras G12V, TR-FRET.
T2 sequence (P01116 1-169 isoform P01116-2 G12V): as above
In the case of `N#Cc1c(N)sc2c(F)ccc(-c3c(Cl)c4c5c(nc(OCC67CCCN6CC(F)C7)nc5c3F)N3CCCOCC3CO4)c12` (single isomer, unassigned) [Compound 66A], the IC50 amounted to 331 nM.

For another test, the target named is T2, GDP-KRAS G12V. Nature of the test: biochemical.
Details: not given
As to `C#Cc1c(F)ccc2cc(N)cc(-c3nc4c5c(nc(OC[C@@]67CCCN6C[C@H](F)C7)nc5c3F)N3CCC(F)CCC3N4C)c12` (stereo partly drawn) [Compound 77], the IC50 was 15.1 nM.

Compound `C#Cc1c(F)ccc2cc(N)cc(-c3nc4c5c(nc(OC[C@@]67CCCN6C[C@H](F)C7)nc5c3F)N3CCCC=C(F)C3N4C)c12` (stereo partly drawn) [Compound 80] had an IC50 of 12.2 nM.

Regarding `C#Cc1c(F)ccc2cc(N)cc(-c3nc4c5c(nc(OC[C@@]67CCCN6C[C@H](F)C7)nc5c3F)N3CCCC(O)CC3N4C)c12` (stereo partly drawn) [Compound 87], the IC50 is 29.9 nM.

Regarding `C#Cc1c(F)ccc2cc(N)cc(-c3nc4c5c(nc(OC[C@@]67CCCN6C[C@H](F)C7)nc5c3F)N3C/C(=N\OC)COC[C@@H]3N4C)c12` [Compound 148], half-maximal inhibition (IC50) required 403 nM.

`C#Cc1c(F)ccc2cc(N)cc(-c3nc4c5c(nc(OC[C@@]67CCCN6C[C@H](F)C7)nc5c3F)N3CC(C)COC[C@H]3CO4)c12` (stereo partly drawn) [Compound 16] showed an IC50 of 15.2 nM.

The compound `C#Cc1c(F)ccc2cc(N)cc(-c3nc4c5c(nc(OC[C@@]67CCCN6C[C@H](F)C7)nc5c3F)N3CCCC3N4C)c12` (stereo partly drawn) [Compound 153] yielded a 50% inhibitory concentration (IC50) of 13.7 nM.

In the case of `C#Cc1c(F)ccc2cc(N)cc(-c3nc4c5c(nc(OC[C@@]67CCCN6C[C@H](F)C7)nc5c3F)N3CCC(F)(F)CCC3N4C)c12` (stereo partly drawn) [Compound 81], the 50% inhibitory concentration (IC50) was determined as 89.3 nM.

`C#Cc1c(F)ccc2cc(N)cc(-c3nc4c5c(nc(OC[C@@]67CCCN6C[C@H](F)C7)nc5c3F)N3CCCC/C(=C/F)C3N4C)c12` (stereo partly drawn) [Compound 86] yielded an IC50 of 9.94 nM.

`C#Cc1c(F)ccc2cc(N)cc(-c3nc4c5c(nc(OCC6(CN7CCOCC7)CCC6)nc5c3F)N3CCCOCC3N4C)c12` (stereo not drawn) [Compound 140]: the IC50 came to 7.11 nM.

The compound `C#Cc1c(F)ccc2cc(N)cc(-c3nc4c5c(nc(OC[C@@]67CCCN6C[C@H](F)C7)nc5c3F)N3CC(F)CC[C@H](F)[C@H]3N4C)c12` (stereo partly drawn) [Compound 134] displayed an IC50 of 1.44 nM.

Another test concerns AsPC-1 cells (K-Ras G12D).
Assay: not given
Details: not given
As to `C#Cc1c(F)ccc2cc(N)cc(-c3nc4c5c(nc(OC[C@@]67CCCN6C[C@H](F)C7)nc5c3F)N3CC(F)COC[C@@H]3CO4)c12` (stereo partly drawn) [Compound 29], the IC50 came out at 620 nM.

The compound `C#Cc1c(F)ccc2cc(N)cc(-c3nc4c5c(nc(OC[C@@]67CCCN6C[C@H](F)C7)nc5c3F)N3CCC(F)CCC3N4C)c12` (stereo partly drawn) [Compound 77] showed an IC50 of 103 nM.
